Measured values: US11542313B2, “Incretin analogs and uses thereof” (Eli Lilly and Company, priority 2017, dated 2023)
*1 amine or outer side, *2 acyl side, *3 side chain or, on linkers, in order; H or OH if unused. Where a SMILES comes first, the peptide text is derived from it. Side-chain parts run from the residue outwards. [ ]: non-standard residue; d: D form. The star is where a group is joined. C20 diacid = O=C(O)CCCCCCCCCCCCCCCCCCC(=O)*; γGlu = O=C(O)[C@H](CCC(=O)[*:2])N[*:1]; αMeL = CC(C)C[C@](C)(N)C(=O)O; AEEA = NCCOCCOCC(=O)O; Aib = CC(C)(N)C(=O)O

Assays:
[1] = target: T1, human glucagon receptor (GcgR) (Homo sapiens, UniProt P47871); test: Radioligand competition binding (SPA), human GcgR membranes
T1 construct: expressed in transfected cells; host or cells: HEK293 (membranes)
T1 sequence (P47871 26-477): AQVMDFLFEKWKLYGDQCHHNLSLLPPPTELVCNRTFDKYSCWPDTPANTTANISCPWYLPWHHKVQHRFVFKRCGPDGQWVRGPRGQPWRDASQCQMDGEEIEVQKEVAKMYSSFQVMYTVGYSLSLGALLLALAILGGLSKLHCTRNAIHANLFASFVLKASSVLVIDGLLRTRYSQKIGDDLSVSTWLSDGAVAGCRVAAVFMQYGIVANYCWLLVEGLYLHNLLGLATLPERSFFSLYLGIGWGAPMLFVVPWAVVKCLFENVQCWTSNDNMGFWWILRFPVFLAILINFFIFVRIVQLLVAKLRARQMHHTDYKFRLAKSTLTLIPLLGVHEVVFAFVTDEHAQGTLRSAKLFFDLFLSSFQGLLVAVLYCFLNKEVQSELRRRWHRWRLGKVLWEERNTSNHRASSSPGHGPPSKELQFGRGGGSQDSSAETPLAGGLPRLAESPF
From the text: (§1) Radioligand competition binding assays are run to determine the equilibrium dissociation constant for exemplary compounds and comparator molecules.
(§2) Competition curves are plotted as the percent specific inhibition (y-axis) versus log concentration of compound (x-axis) and analyzed using a four parameter nonlinear regression fit with variable slope (ABase or Genedata).

[2] = target: T2, human GIP receptor (GIPR) (Homo sapiens, UniProt P48546); test: Radioligand competition binding (SPA), human GIPR membranes
T2 construct: expressed in transfected cells; host or cells: HEK293 (membranes)
T2 sequence (P48546 22-466): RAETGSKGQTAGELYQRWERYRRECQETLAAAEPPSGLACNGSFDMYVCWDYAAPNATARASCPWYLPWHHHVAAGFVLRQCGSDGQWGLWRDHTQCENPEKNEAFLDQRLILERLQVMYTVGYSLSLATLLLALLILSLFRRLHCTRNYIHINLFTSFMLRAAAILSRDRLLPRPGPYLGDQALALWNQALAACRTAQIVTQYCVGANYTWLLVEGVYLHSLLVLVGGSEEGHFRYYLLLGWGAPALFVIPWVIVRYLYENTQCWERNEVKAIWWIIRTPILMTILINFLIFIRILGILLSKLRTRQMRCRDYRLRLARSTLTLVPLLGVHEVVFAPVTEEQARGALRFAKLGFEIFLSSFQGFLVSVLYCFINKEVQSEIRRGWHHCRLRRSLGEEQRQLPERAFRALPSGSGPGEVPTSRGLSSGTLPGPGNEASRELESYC
From the text: as §1, §2

GLP-1 receptor (GLP-1R) = target: T3, GLP-1 receptor (GLP-1R) (Homo sapiens, UniProt P43220); test: Radioligand competition binding (SPA), human GLP-1R membranes
T3 construct: expressed in transfected cells; host or cells: HEK293 (membranes)
T3 sequence (P43220 24-463): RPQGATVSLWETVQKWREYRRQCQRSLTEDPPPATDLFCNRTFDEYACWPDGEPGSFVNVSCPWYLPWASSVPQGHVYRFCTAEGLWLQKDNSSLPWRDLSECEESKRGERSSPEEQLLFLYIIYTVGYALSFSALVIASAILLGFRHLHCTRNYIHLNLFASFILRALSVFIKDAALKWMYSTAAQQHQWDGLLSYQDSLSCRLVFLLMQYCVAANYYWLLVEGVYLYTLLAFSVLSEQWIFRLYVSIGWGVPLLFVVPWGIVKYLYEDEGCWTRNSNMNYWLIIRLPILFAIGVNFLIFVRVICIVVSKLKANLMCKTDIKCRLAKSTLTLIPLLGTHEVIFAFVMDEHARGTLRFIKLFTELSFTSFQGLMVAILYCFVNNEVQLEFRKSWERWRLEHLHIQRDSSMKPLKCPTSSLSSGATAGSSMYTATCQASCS
From the text: as §1, §2

[3] = Pharmacokinetics in male Sprague Dawley rats; conditions: for CL/F / Tmax / half-life: male, Sprague-Dawley, rat, plasma, sc, 100 nmol/kg; for AUCINF_D_obs / Cmax/D: single subcutaneous 100 nMol/kg, male Sprague Dawley rats, n = 3

| Structure (SMILES) | Ki [1] [nM] | Ki [2] [nM] | Ki (GLP-1 receptor (GLP-1R)) [nM] | CL/F [3] [mL/h/kg] | Tmax [3] [h] | half-life [3] [h] | AUCINF_D_obs [3] [hr*kg*nmol/L/nmol] | Cmax/D [3] [kg*nmol/L/nmol] |
| --- | --- | --- | --- | --- | --- | --- | --- | --- |
| CC[C@H](C)[C@H](NC(=O)[C@H](Cc1ccccc1)NC(=O)[C@H](C)NC(=O)[C@H](Cc1c[nH]cn1)NC(=O)[C@H](CCC(N)=O)NC(=O)[C@H](C)NC(=O)[C@H](CCCCNC(=O)COCCOCCNC(=O)CC[C@H](NC(=O)CCCCCCCCCCCCCCCCCCC(=O)O)C(=O)O)NC(=O)[C@H](CCCCN)NC(=O)[C@H](CC(=O)O)NC(=O)[C@H](CC(C)C)NC(=O)[C@](C)(CC(C)C)NC(=O)[C@@H](NC(=O)[C@H](CO)NC(=O)[C@H](Cc1ccc(O)cc1)NC(=O)[C@H](CC(=O)O)NC(=O)[C@H](CO)NC(=O)[C@@H](NC(=O)[C@H](Cc1ccccc1)NC(=O)[C@@H](NC(=O)CNC(=O)[C@H](CCC(N)=O)NC(=O)C(C)(C)NC(=O)[C@@H](N)Cc1ccc(O)cc1)[C@@H](C)O)[C@@H](C)O)[C@@H](C)CC)C(=O)N[C@@H](CCC(=O)O)C(=O)N[C@@H](Cc1ccc(O)cc1)C(=O)N[C@@H](CC(C)C)C(=O)N[C@@H](CC(C)C)C(=O)N[C@@H](CCC(=O)O)C(=O)NCC(=O)NCC(=O)N1CCC[C@H]1C(=O)N[C@@H](CO)C(=O)N[C@@H](CO)C(=O)NCC(=O)N[C@@H](C)C(=O)N1CCC[C@H]1C(=O)N1CCC[C@H]1C(=O)N1CCC[C@H]1C(=O)N[C@@H](CO)C(N)=O [Example 10] (H-Y[Aib]QGTFTSDYSI[αMeL]LDKK([AEEA-γGlu-C20 diacid])AQHAFIEYLLEGGPSSGAPPPS-NH2; N-terminus assumed) | 7.37 | 0.118 | 12 | 4.9 | 24 | 23.4 | 203.5 | 3.1 |
| CC[C@H](C)[C@H](NC(=O)[C@H](Cc1ccccc1)NC(=O)[C@H](C)NC(=O)C(C)(C)NC(=O)[C@H](CCC(N)=O)NC(=O)[C@H](C)NC(=O)[C@H](CCCCNC(=O)COCCOCCNC(=O)COCCOCCNC(=O)CC[C@H](NC(=O)CCCCCCCCCCCCCCCCCCC(=O)O)C(=O)O)NC(=O)[C@H](CCCCN)NC(=O)[C@H](CC(=O)O)NC(=O)[C@H](CC(C)C)NC(=O)[C@H](CC(C)C)NC(=O)[C@@H](NC(=O)[C@H](CO)NC(=O)[C@H](Cc1ccc(O)cc1)NC(=O)[C@H](CC(=O)O)NC(=O)[C@H](CO)NC(=O)[C@@H](NC(=O)[C@H](Cc1ccccc1)NC(=O)[C@@H](NC(=O)CNC(=O)[C@H](CCC(N)=O)NC(=O)C(C)(C)NC(=O)[C@@H](N)Cc1ccc(O)cc1)[C@@H](C)O)[C@@H](C)O)[C@@H](C)CC)C(=O)N[C@@H](CCC(=O)O)C(=O)N[C@@H](Cc1ccc(O)cc1)C(=O)N[C@@H](CC(C)C)C(=O)N[C@@H](CC(C)C)C(=O)N[C@@H](CCC(=O)O)C(=O)NCC(=O)NCC(=O)N1CCC[C@H]1C(=O)N[C@@H](CO)C(=O)N[C@@H](CO)C(=O)NCC(=O)N[C@@H](C)C(=O)N1CCC[C@H]1C(=O)N1CCC[C@H]1C(=O)N1CCC[C@H]1C(=O)N[C@@H](CO)C(N)=O [Example 16] | 11.5 | 0.106 | 16.1 | 3.6 | 20 | 29.1 | 274.9 | 3.8 |
| CC[C@H](C)[C@H](NC(=O)[C@H](Cc1ccccc1)NC(=O)[C@H](C)NC(=O)C(C)(C)NC(=O)[C@H](CCC(N)=O)NC(=O)[C@H](C)NC(=O)[C@H](CCCCNC(=O)COCCOCCNC(=O)CC[C@H](NC(=O)CCCCCCCCCCCCCCCCCCC(=O)O)C(=O)O)NC(=O)[C@H](CCCCN)NC(=O)[C@H](CC(=O)O)NC(=O)[C@H](CC(C)C)NC(=O)[C@H](CC(C)C)NC(=O)[C@@H](NC(=O)[C@H](CO)NC(=O)[C@H](Cc1ccc(O)cc1)NC(=O)[C@H](CC(=O)O)NC(=O)[C@H](CO)NC(=O)[C@@H](NC(=O)[C@H](Cc1ccccc1)NC(=O)[C@@H](NC(=O)CNC(=O)[C@H](CCC(N)=O)NC(=O)C(C)(C)NC(=O)[C@@H](N)Cc1ccc(O)cc1)[C@@H](C)O)[C@@H](C)O)[C@@H](C)CC)C(=O)N[C@@H](CCC(=O)O)C(=O)N[C@@H](Cc1ccc(O)cc1)C(=O)N[C@@H](CC(C)C)C(=O)N[C@@H](CC(C)C)C(=O)N[C@@H](CCC(=O)O)C(=O)NCC(=O)NCC(=O)N1CCC[C@H]1C(=O)N[C@@H](CO)C(=O)N[C@@H](CO)C(=O)NCC(=O)N[C@@H](C)C(=O)N1CCC[C@H]1C(=O)N1CCC[C@H]1C(=O)N1CCC[C@H]1C(=O)N[C@@H](CO)C(N)=O [Example 18] | 5.71 | 0.0835 | 8.06 | 3.6 | 24 | 34.8 | 284.3 | 5.0 |
| CC[C@H](C)[C@H](NC(=O)[C@H](Cc1ccccc1)NC(=O)[C@H](C)NC(=O)[C@H](CCC(N)=O)NC(=O)[C@H](C)NC(=O)[C@H](C)NC(=O)[C@H](CCCCNC(=O)COCCOCCNC(=O)COCCOCCNC(=O)CC[C@H](NC(=O)CCCCCCCCCCCCCCCCCCC(=O)O)C(=O)O)NC(=O)[C@H](CCCCN)NC(=O)[C@H](CC(=O)O)NC(=O)[C@H](CC(C)C)NC(=O)[C@](C)(CC(C)C)NC(=O)[C@@H](NC(=O)[C@H](CO)NC(=O)[C@H](Cc1ccc(O)cc1)NC(=O)[C@H](CC(=O)O)NC(=O)[C@H](CO)NC(=O)[C@@H](NC(=O)[C@H](Cc1ccccc1)NC(=O)[C@@H](NC(=O)CNC(=O)[C@H](CCC(N)=O)NC(=O)C(C)(C)NC(=O)[C@@H](N)Cc1ccc(O)cc1)[C@@H](C)O)[C@@H](C)O)[C@@H](C)CC)C(=O)N[C@@H](CCC(=O)O)C(=O)N[C@@H](Cc1ccc(O)cc1)C(=O)N[C@@H](CC(C)C)C(=O)N[C@@H](CC(C)C)C(=O)N[C@@H](CCC(=O)O)C(=O)NCC(=O)NCC(=O)N1CCC[C@H]1C(=O)N[C@@H](CO)C(=O)N[C@@H](CO)C(=O)NCC(=O)N[C@@H](C)C(=O)N1CCC[C@H]1C(=O)N1CCC[C@H]1C(=O)N1CCC[C@H]1C(=O)N[C@@H](CO)C(N)=O [Example 6] (H-Y[Aib]QGTFTSDYSI[αMeL]LDKK([AEEA-AEEA-γGlu-C20 diacid])AAQAFIEYLLEGGPSSGAPPPS-NH2; N-terminus assumed) | 0.835 | 0.249 | 36.7 |  |  |  |  |  |
| CC[C@H](C)[C@H](NC(=O)[C@H](Cc1ccccc1)NC(=O)[C@H](C)NC(=O)[C@H](Cc1c[nH]cn1)NC(=O)[C@H](CCC(N)=O)NC(=O)[C@H](C)NC(=O)[C@H](CCCCNC(=O)COCCOCCNC(=O)COCCOCCNC(=O)CC[C@H](NC(=O)CCCCCCCCCCCCCCCCCCC(=O)O)C(=O)O)NC(=O)[C@H](CCCCN)NC(=O)[C@H](CC(=O)O)NC(=O)[C@H](CC(C)C)NC(=O)[C@](C)(CC(C)C)NC(=O)[C@@H](NC(=O)[C@H](CO)NC(=O)[C@H](Cc1ccc(O)cc1)NC(=O)[C@H](CC(=O)O)NC(=O)[C@H](CO)NC(=O)[C@@H](NC(=O)[C@H](Cc1ccccc1)NC(=O)[C@@H](NC(=O)CNC(=O)[C@H](CCC(N)=O)NC(=O)C(C)(C)NC(=O)[C@@H](N)Cc1ccc(O)cc1)[C@@H](C)O)[C@@H](C)O)[C@@H](C)CC)C(=O)N[C@@H](CCC(=O)O)C(=O)N[C@@H](Cc1ccc(O)cc1)C(=O)N[C@@H](CC(C)C)C(=O)N[C@@H](CC(C)C)C(=O)N[C@@H](CCC(=O)O)C(=O)NCC(=O)NCC(=O)N1CCC[C@H]1C(=O)N[C@@H](CO)C(=O)N[C@@H](CO)C(=O)NCC(=O)N[C@@H](C)C(=O)N1CCC[C@H]1C(=O)N1CCC[C@H]1C(=O)N1CCC[C@H]1C(=O)N[C@@H](CO)C(N)=O [Example 7] (H-Y[Aib]QGTFTSDYSI[αMeL]LDKK([AEEA-AEEA-γGlu-C20 diacid])AQHAFIEYLLEGGPSSGAPPPS-NH2) | 16.3 | 0.11 | 21.4 |  |  |  |  |  |
| CC[C@H](C)[C@H](NC(=O)[C@H](Cc1ccccc1)NC(=O)[C@H](C)NC(=O)C(C)(C)NC(=O)[C@H](CCC(N)=O)NC(=O)[C@H](C)NC(=O)[C@H](CCCCNC(=O)COCCOCCNC(=O)CC[C@H](NC(=O)CCCCCCCCCCCCCCCCCCC(=O)O)C(=O)O)NC(=O)[C@H](CCCCN)NC(=O)[C@H](CC(=O)O)NC(=O)[C@H](CC(C)C)NC(=O)[C@](C)(CC(C)C)NC(=O)[C@@H](NC(=O)[C@H](CO)NC(=O)[C@H](Cc1ccc(O)cc1)NC(=O)[C@H](CC(=O)O)NC(=O)[C@H](CO)NC(=O)[C@@H](NC(=O)[C@H](Cc1ccccc1)NC(=O)[C@@H](NC(=O)CNC(=O)[C@H](CCC(N)=O)NC(=O)C(C)(C)NC(=O)[C@@H](N)Cc1ccc(O)cc1)[C@@H](C)O)[C@@H](C)O)[C@@H](C)CC)C(=O)N[C@@H](CCC(=O)O)C(=O)N[C@@H](Cc1ccc(O)cc1)C(=O)N[C@@H](CC(C)C)C(=O)N[C@@H](CC(C)C)C(=O)N[C@@H](CCC(=O)O)C(=O)NCC(=O)NCC(=O)N1CCC[C@H]1C(=O)N[C@@H](CO)C(=O)N[C@@H](CO)C(=O)NCC(=O)N[C@@H](C)C(=O)N1CCC[C@H]1C(=O)N1CCC[C@H]1C(=O)N1CCC[C@H]1C(=O)N[C@@H](CO)C(N)=O [Example 12] | 5.6 |  |  | 5.1 | 24 | 26.5 | 197.1 | 3.7 |
